Series [1] deals with Acinetobacter baumannii, Pseudomonas aeruginosa, and Escherichia coli. The experiment in a line: In vitro antibacterial activity, summary statements over all strains of Experimental Example 1. It is filed as cell-based. The note with it: method of Experimental Example 1. The method, then: (§1) Compounds: The compounds prepared in the above examples and comparative examples. All test compounds were dissolved and diluted with DMSO, and the final concentrations were prepared as 64, 32, 16, 8, 4, 2, 1, 0.5, 0.25, 0.125, 0.0625 μg/mL in the experiment.
(§2) Bacterial strains: 6 strains of Acinetobacter baumannii (codenames: HDBAB-YK4, HDBAB-YK7, HDBAB-YK12, HDBAB-YK16, HDBAB_OXA_7, ATCC 19606), 2 strains of Pseudomonas aeruginosa (codenames: HDBPA-YK9, HDBPA)-YK15), 1 strain of Escherichia coli (codename: CLB30048), all provided by HD Biosciences (Shanghai) Co., Ltd.
The minimum inhibitory concentration (MIC) of each compound was recorded according to the guidelines of the Clinical and Laboratory Standards Institute.

Series [2] is described as follows: Pharmacokinetics of the compounds in mice. Type of series: in vivo, BALB/c mice. The note with it: mouse, plasma, male BALB/c mice, single intravenous dose 2 mg/kg, plasma; for Vd: male, BALB/c, iv, 2 mg/kg. The source says: Animals: male BALB/c mice, SPF grade, purchased from Changzhou Cavens Experimental Animal Co., Ltd.; 16-24 g, license number: SCXK (Su)2016-0010; 2 to 3 days of adaptation period were given before the experiment.
Instruments: API 4500 High Performance Liquid Chromatograph Coupled Triple Quadrupole Mass Spectrometer, and Analyst QS A01.01 Chromatography Workstation were both purchased from AB SCIEX of the United States; Milli-Q ultrapure water device was purchased from Millipore; CF16R XII desktop high-speed refrigerated centrifuge was purchased From Hitachi Company; Qilinbeier Vortex-5 oscillator was purchased from IKA Company of German; electric heating constant-temperature water bath was purchased from Changzhou Guohua Electric Appliance Co., Ltd.; electric pipette was purchased from Thermo Company of American; and microanalysis balance was purchased from Shanghai Mettler Co., Ltd.
2 mg of the test compound was weighed, added to physiological saline, vortexed for 2 min, and ultrasonicated for 3 min, to prepare a test solution with a concentration of 0.2 mg/mL for intravenous administration.
A single dose of 2 mg/kg of the test compound was administered to BALB/c mice via the tail vein, the dose volume being 0.1 mL/10 g. At 5 min, 15 min, 30 min, 1 h, 2 h, 4 h after administration, blood samples were collected from the orbital venous plexus into heparinized EP tubes (0.6 mL), which were temporarily placed on crushed ice.
The samples were centrifuged at 8000 rpm for 5 min. 15 μL of upper plasma were transferred to a 96-well plate. 150 μL of methanol:acetonitrile (v/v=1:1) (containing 20 ng/mL tolbutamide) was added to 15 μL of plasma, shaken for 3 min, and centrifuged at 4500 rpm for 5 min. 100 μL of supernatant was taken to a 2 mL deep well plate. 100 μL of diluent (pure water) was added. The samples were shaken for 3 min, and centrifuged at 4500 rpm for 5 min. 180 μL of the supernatant was transferred to the sample plate. The content of the compound in the supernatant sample was analyzed by LC-MS/MS, and various pharmacokinetic parameters were calculated with WinNonlin software.

The test system of a further series is Acinetobacter baumannii. In words: In vitro antibacterial activity, minimum inhibitory concentration (MIC). Type of series: cell-based. On the procedure:
as §1, §2
(§3) Medium: Trypticase soy agar (TSA) (BD BBL 211043), and Cation-adjusted Mueller Hinton broth (CAMHB) (BD BBL212322).
(§4) The bacteria used for the minimum inhibitory concentration (MIC) test were stored frozen at −80° C., and needed 2 days to recover before use. A small amount of frozen bacteria was scraped with a sterile inoculation loop for streak inoculation on a TSA solid medium petri dish. The dish was placed in an ordinary incubator at 35±2° C. for 20-24 hours. 5-10 Colonies with similar morphologies were picked from the above-mentioned petri dish with a sterile inoculating loop for streak inoculation again on a TSA solid medium petri dish. The dish was then placed in an ordinary incubator at 35±2° C. for 20-24 hours.
(§5) 1.02×CAMHB liquid medium was taken out from a 4° C. refrigerator and placed at room temperature for preheating. 5-10 Individual bacterial colonies were picked from the solid petri dish of the above Section 2.1 and re-suspended in 500 μL of 0.9% NaCl, and then the OD600 was adjusted to 0.1-0.15 with a spectrophotometer. Then the bacteria were diluted 400 times with 1.02×CAMHB (two-step dilution method: firstly diluting 10 times, then diluting 40 times).
(§6) The number of inoculated bacteria can be obtained by counting the colonies on the petri dish (see Section 2.4).
(§7) One compound was arranged in each row of a 96-well test plate: the highest test concentration for each compound was 64 μg/mL, which was diluted by a factor of two.
(§8) Growth control (GC): 1.02×CAMHB and dimethyl sulfoxide (DMSO) containing bacterial inoculum, no compound.
(§9) Sterile control (SC): Containing 1.02×CAMHB and DMSO, no compound.
(§10) All test compounds were dissolved and diluted with DMSO. 50 μL of 3.2 mg/mL of each test compound was transferred to the initial well (A1-H1) of the dilution plate, and then 25 μL of DMSO was transferred to other wells. The test compounds were sequentially diluted by a factor of 2 from column 1 to column 11 (i.e. drawing 25 μL of test compound from column 1 to column 2 and mixing well, and then drawing 25 μL of test compound from column 2 to column 3 and mixing well, and then drawing 25 μL of test compound from column 3 to column 4 and mixing well, and so on, until diluting to column 11).
(§11) 2 μL of the compound was transferred from the compound plate to the corresponding well of the test plate. Meanwhile, 2 μL of 100% DMSO was transferred to the compound-free wells (the GC and SC wells).
(§12) 98 μL of the corresponding bacterial inoculum was added to the test plate (except for the SC well).
(§13) 98 μL of 1.02×CAMHB medium was added to the SC well of the test plate.
(§14) After the system was added, the test plate was covered with a sterile lid, centrifuged at 800 rpm for 30 seconds, then shaken on a plate shaker at 400 rpm for 1 minute for mixing well, and then placed in an incubator at 35±2° C. for 20 hours.
(§15) The inoculated bacteria were gradient diluted by 10 folds with the liquid medium, from 10^−1 to 10^−3. 100 μL of the above bacterial dilution was spread evenly on a TSA petri dish, 2 replicates for each dilution. After the medium was absorbed by TSA for 10 minutes, the petri dishes were reversed and incubated in an incubator at 35±2° C. for 24 hours.
(§16) A compound management system was turned on to check whether the barcode and compound arrangement of each test plate were correct. […]

In another series the test system is Escherichia coli. Described as above. It is filed as cell-based. The method, then:
as §1, §2, §3, §4, §5, §6, §7, §8, §9, §10, §11, §12, §13, §14, §15, §16

A further series concerns Pseudomonas aeruginosa. Described as above. Type of series: cell-based. On the procedure: as §1, §2, §3, §4, §5, §6, §7, §8, §9, §10, §11, §12, §13, §14, §15, §16

SMILES strings stand for the structures. Converted amounts (≈) assume the structure as drawn. Where a name gives a salt, the structure may show the parent alone. Read-outs that look alike come from different tables or passages of the source.

As a reminder, the AUC(0-inf) is the area under the concentration-time curve extrapolated to infinity. What is called AUC(0-t) is exposure summed from dosing to a finite time, without extrapolation to infinity. A high value points to high exposure. As a reminder, the clearance is the volume of plasma or blood freed of the substance per unit of time. A high value points to a high capacity for elimination. Usually half-life stands for how long it takes for the measured level to halve. Usually MIC stands for the lowest concentration that inhibits growth of the organism. Turning to `CC(CN)Nc1ccc(-c2ccc(OC[C@H](O/N=C(\C(=O)N[C@@H]3C(=O)N(OS(=O)(=O)[O-])C3(C)C)c3csc(N)n3)C(=O)O)cc2)c[n+]1C` (stereo partly drawn) [Compound A, reference compound], the “in vitro antibacterial activity (in words)” value in series [1] is on record as “significantly weaker”. In addition, the Vd in series [2] (read-out: VSS) worked out at 0.4 L/kg. Moreover, the area under the curve AUC(0-inf) in series [2] amounted to 2800 ng·h/mL. In addition, in series [2], the exposure AUC(0-t) stood at 2140 ng·h/mL. For the same compound, the C0 in series [2] turned out to be 5920 ng/mL. The compound also gave a clearance in series [2] of 265 mL/min/kg. Besides, the half-life in series [2] is 18 min. Moreover, the minimum inhibitory concentration (MIC) against Acinetobacter baumannii (strain HDBAB-YK4) turned out to be 16 µg/mL (≈ 22.6 µM); in the series with Acinetobacter baumannii (strain HDBAB-YK7) it was 8 µg/mL (≈ 11.3 µM); against Acinetobacter baumannii (strain HDBAB-YK12) it was 4 µg/mL (≈ 5.66 µM); in the series with Acinetobacter baumannii (strain HDBAB-YK16), 16 µg/mL (≈ 22.6 µM); against Acinetobacter baumannii (strain HDBAB_OXA_7), 16 µg/mL (≈ 22.6 µM); in the series with Escherichia coli (strain CLB30048, read-out: MIC), 8 µg/mL (≈ 11.3 µM). The results for the MIC in the series with Pseudomonas aeruginosa (strain HDBPA-YK9) and in the series with Pseudomonas aeruginosa (strain HDBPA-YK15) were 16 µg/mL (≈ 22.6 µM) and 64 µg/mL (≈ 90.6 µM), respectively.

Turning to `CC1(C)[C@H](NC(=O)/C(=N\O[C@@H](COc2ccc(NC(=O)c3cn(CCCN)[n+](CC4CNC4)c3)cc2)C(=O)O)c2csc(N)n2)C(=O)N1OS(=O)(=O)[O-]` [Example 2, (S)-3-((Z)-2-(((S)-2-(4-(1-(3-aminopropyl)-2-(azetidin-3-ylmethyl)-1H-pyrazol-2-ium-4-carboxamido)phenoxy)-1-carboxyethoxy)imino)-2-(2-aminothiazol-4-yl)acetylamido)-2,2-dimethyl-4-oxoazetidin-1-yl Sulfate], the “in vitro antibacterial activity (in words)” value in series [1] is given as “excellent antibacterial activity”. Also, the MIC amounted to 2 µg/mL against Acinetobacter baumannii (ATCC19606, strain ATCC 19606); 2 µg/mL with Acinetobacter baumannii (strain HDBAB-YK4); 0.625 µg/mL in the series on Acinetobacter baumannii (strain HDBAB-YK7); 2 µg/mL in the series with Acinetobacter baumannii (strain HDBAB-YK12); 8 µg/mL against Acinetobacter baumannii (strain HDBAB-YK16); 4 µg/mL against Acinetobacter baumannii (strain HDBAB_OXA_7). The figures for the MIC against Escherichia coli, against Pseudomonas aeruginosa (strain HDBPA-YK9) and in the series on Pseudomonas aeruginosa (strain HDBPA-YK15) were 1 µg/mL, 4 µg/mL and more than 64 µg/mL, respectively.

In the case of `CC1[C@@H](NC(=O)/C(=N\OC2(C(=O)O)CC2)c2csc(N)n2)[C@@H](CN2CCOC2=O)N1S(=O)(=O)O` (stereo partly drawn) [Compound B, reference compound], the “in vitro antibacterial activity (in words)” value in series [1] is listed as “significantly weaker”. Also, the MIC is more than 64 µg/mL in the series with Acinetobacter baumannii (strain HDBAB-YK4); more than 64 µg/mL in the series with Acinetobacter baumannii (strain HDBAB-YK7); more than 64 µg/mL in the series on Acinetobacter baumannii (strain HDBAB-YK12); more than 64 µg/mL in the series with Acinetobacter baumannii (strain HDBAB-YK16); more than 64 µg/mL in the series with Acinetobacter baumannii (strain HDBAB_OXA_7); more than 64 µg/mL in the series with Escherichia coli (strain CLB30048, read-out: MIC). Also, the MIC with Pseudomonas aeruginosa (strain HDBPA-YK9) and in the series on Pseudomonas aeruginosa (strain HDBPA-YK15) was more than 64 µg/mL in each case.

As for `C[n+]1cc(-c2ccc(OC[C@H](O/N=C(\C(=O)N[C@@H]3C(=O)N(OS(=O)(=O)[O-])C3(C)C)c3csc(N)n3)C(=O)O)cc2)ccc1NC(=O)[C@@H](N)CCN` [Example 9], the “in vitro antibacterial activity (in words)” value in series [1] is “excellent antibacterial activity”. The MIC in the series on Acinetobacter baumannii (ATCC19606, strain ATCC 19606) was 2 µg/mL (≈ 2.67 µM); against Acinetobacter baumannii (strain HDBAB-YK4), 2 µg/mL (≈ 2.67 µM); against Acinetobacter baumannii (strain HDBAB-YK7), 0.25 µg/mL (≈ 0.333 µM); against Acinetobacter baumannii (strain HDBAB-YK12), 1 µg/mL (≈ 1.33 µM); in the series on Acinetobacter baumannii (strain HDBAB-YK16), 8 µg/mL (≈ 10.7 µM); in the series on Acinetobacter baumannii (strain HDBAB_OXA_7) it was 8 µg/mL (≈ 10.7 µM). Further, the MIC was 2 µg/mL (≈ 2.67 µM) with Escherichia coli (strain CLB30048, read-out: MIC); 8 µg/mL (≈ 10.7 µM) in the series with Pseudomonas aeruginosa (strain HDBPA-YK9); more than 64 µg/mL in the series on Pseudomonas aeruginosa (strain HDBPA-YK15).

As to `C[n+]1cc(-c2ccc(OC[C@H](O/N=C(\C(=O)N[C@@H]3C(=O)N(OS(=O)(=O)[O-])C3(C)C)c3csc(N)n3)C(=O)O)cc2)ccc1NC(=O)[C@@H](N)CCCCN` [Example 4, (S)-3-((Z)-2-(2-aminothiazol-4-yl)-2-(((S)-1-carboxy-2-(4-(6-((S)-2,6-diaminohexanamido)-1-methylpyridin-1-ium-3-yl)phenoxy)ethoxy)imino)acetylamino)-2,2-dimethyl-4-oxoazetidin-1-yl Sulfate], the Vd in series [2] (read-out: VSS) turned out to be 0.73 L/kg; in series [2] (read-out: Vd), 0.88 L/kg. The AUC(0-inf) in series [2] was determined as 813 ng·h/mL. Besides, in series [2], the AUC(0-t) came out at 751 ng·h/mL. The compound also returned a C0 in series [2] of 3010 ng/mL. The compound also showed a clearance in series [2] of 42.8 mL/min/kg. Besides, the half-life in series [2] was 13.8 min. In addition, the MIC in the series on Acinetobacter baumannii (ATCC19606, strain ATCC 19606) came to 2 µg/mL; in the series on Acinetobacter baumannii (strain HDBAB-YK4), 2 µg/mL; in the series with Acinetobacter baumannii (strain HDBAB-YK7) it was 2 µg/mL; against Acinetobacter baumannii (strain HDBAB-YK12), 4 µg/mL; in the series with Acinetobacter baumannii (strain HDBAB-YK16) it was 32 µg/mL; with Acinetobacter baumannii (strain HDBAB_OXA_7), 16 µg/mL. The MIC is 8 µg/mL with Escherichia coli (strain CLB30048, read-out: MIC); 16 µg/mL against Pseudomonas aeruginosa (strain HDBPA-YK9); more than 64 µg/mL against Pseudomonas aeruginosa (strain HDBPA-YK15).
